# Legend:
# RBL-2H3 mast cells [1] = experiment: β-hexosaminidase release from IgE/antigen stimulated RBL-2H3 mast cells; type: cell-based; conditions: 1 hour preincubation, IgE/DNP-BSA challenge 30 minutes
# Procedure: (§1) RBL-2H3 cells were sensitized with monoclonal anti-DNP IgE antibody (0.24 mg/ml) for 1 hour at 37° C. in a 48-well tissue culture plate. RBL-2H3 cells were allowed to adhere to the plate, whereas bone marrow mast cells (BMMC) were used in suspension. Unbound IgE was removed by washing the cells with phosphate buffered saline. After washing the BMMC were re-suspended in RPMI-hepes buffer. PIPES-buffered saline containing 1 mM calcium chloride was added to the monolayers of the RBL-2H3 cells.
# (§2) To study the effects of compound HI-D12, mast cells were incubated with compound HI-D12 at the indicated concentrations or vehicle for 1 hour prior to challenge. The cells were challenged with 20 ng/ml DNP-BSA for 30 minutes at 37° C. The plate was then centrifuged at 200 g for 10 minutes at 4° C. Supernatants were removed and saved. RBL-2H3 cell pellets were washed with phosphate buffered saline and solubilized in PIPES buffered saline containing 0.1% Triton X-100.
# (§3) Leukotriene (LT) C4 levels were estimated in cell free supernatants by immunoassay using (LT) C4 ELISA kits obtained from Cayman Company (Ann Arbor, Mich.), according to the manufacturer instructions. β-hexosaminidase release was estimated in cell free supernatants and Triton X-100 solubilized pellets, using the method described in Ozawa et al, 1993, J. Biol. Chem., 268:1749-1756.
# RBL-2H3 mast cells [2] = experiment: Leukotriene C4 release from IgE/antigen stimulated RBL-2H3 mast cells (LTC4 ELISA); type: cell-based; conditions: 1 hour preincubation, IgE/DNP-BSA challenge 30 minutes
# Procedure: as §1, §2, §3
# recombinant BTK = molecular target: T1, recombinant BTK (Mus musculus, UniProt P35991); experiment: Recombinant BTK immune-complex kinase assay (baculovirus vector expression system); type: biochemical, murine; conditions: for inhibition of recombinant BTK, concentration dependence: BTK expressed in a baculovirus vector expression system; for IC50: recombinant BTK, kinase assay (Table 1)
# T1 construct: made in house; host or cells: Insect cells (Sf21, IPLB-SF21-AE) with recombinant baculovirus from pFastBac1-BTK
# Procedure: The effects of calanolides on the enzymatic activity of the tyrosine kinase BTK in kinase assays was evaluated using recombinant BTK, according to the methods previously reported (Mahajan et al., 1999, J Biol. Chem., 274:9587-9599).
# Sf21 (IPLB-SF21-AE) cells, derived from the ovarian tissue of the fall armyworm Spodotera frugiperda, were obtained from Invitrogen and maintained at 26-28° C. in Grace's insect cell medium supplemented with 10% FBS and 1.0% antibiotic/antimycotic (GIBCO-BRL). Stock cells were maintained in suspension at 0.2-1.6×10^6 /ml in 600 ml total culture volume in 1 L Bellco spinner flasks at 60-90 rpm. Cell viability was maintained at 95-100% as determined by trypan blue dye exclusion.
# To construct the recombinant baculovirus containing the murine BTK gene, the gene encoding BTK was excised from pBluescript SKII^+ vector (Stratagene) by digestion with BamHI. This fragment was then ligated into pFastBac1 (Gibco-BRL). The resulting vector, pFastBac1-BTK, was used to generate the recombinant baculovirus by site-specific transposition in E. coli DH10Bac cells (Gibco-BRL), which harbor a baculovirus shuttle vector (bacmid), bMON14272. The resulting recombinant bacmid DNA was introduced into insect cells by transfection with the standard liposome-mediated method using Cellfectin reagent (Gibco-BRL). Four days later, transfection supernatants were harvested for subsequent plaque purification and analyzed.
# Immunoprecipitations, immune-complex protein kinase assays, and immunoblotting using the ECL chemiluminescence detection system (Amersham Life Sciences) were conducted as described previously (Mahajan et al., 1999, J. Biol. Chem., 274:9587-9599). Following electrophoresis, kinase gels were dried onto Whatman 3M filter paper and subjected to phosphoimaging on a Molecular Imager (Bio-Rad, Hercules, Calif.) as well as autoradiography on film. Similarly, all chemiluminescent BTK Western blots were subjected to three dimesional densitometric scanning using the Molecular Imager and Imaging Densitometer using the Molecular Analyst/Macontosh version 2.1 software following the specifications of the manufacturer (Bio-Rad). For each drug concentration, a BTK kinase activity index was determined by comparing the ratios of the kinase activity in phosphorimager units (PIU) and density of the protein bands in densitometric scanning units (DSU) to those of the baseline sample and using the formula: Activity Index=[PIU of kinase band/DSU of BTK protein band]test sample :[PIU of kinase band/DSU of BTK protein band]baseline control sample. Horse radish peroxidase-conjugated sheep anti-mouse, donkey anti-rabbit secondary antibodies and ECL reagents were purchased from Amersham (Oakbrook, Ill.).
# BALB/c mice = experiment: Passive cutaneous anaphylaxis in mice (Evans blue dye extravasation); type: in vivo
# Procedure: In order to examine the effect of HI-D12 on passive cutaneous anaphylaxis in mice, dorsal sides of the ears of BALB/c mice were injected intradermally with 20 ng of DNP-IgE (left ears) or PBS (right ears) in 20 μL volume using a 30-gauge needle, as previously described (Miyajima et. al., 1997, J. Clin. Invest. 99:901-914). After 20 hours, mice were treated with compound HI-D12 (15 or 50 mg/kg i.p.) twice at 1 hour intervals prior to the antigen challenge. Control mice were treated with an equal volume of vehicle. Thirty minutes after the last dose of compound HI-D12 or vehicle, mice were challenged with 100 μg antigen (DNP-BSA) in 200 μl 2% Evans blue dye intravenously. Mice were sacrificed by cervical dislocation 30 minutes after the antigen challenge. For quantitation of Evans blue dye extravasation as a measure of anaphylaxis-associated vascular hyperpermeability, 8 mm skin specimens were removed from the ears of mice, minced in 2 ml formamide and incubated at 80° C. for 2 hours in water bath to extract the dye. The absorbance was read at […]. The data were expressed as plasma exudation indices (i.e., times increase in optical density over PBS treated ears at 620 nm).
# T1 sequence (P35991 whole entry): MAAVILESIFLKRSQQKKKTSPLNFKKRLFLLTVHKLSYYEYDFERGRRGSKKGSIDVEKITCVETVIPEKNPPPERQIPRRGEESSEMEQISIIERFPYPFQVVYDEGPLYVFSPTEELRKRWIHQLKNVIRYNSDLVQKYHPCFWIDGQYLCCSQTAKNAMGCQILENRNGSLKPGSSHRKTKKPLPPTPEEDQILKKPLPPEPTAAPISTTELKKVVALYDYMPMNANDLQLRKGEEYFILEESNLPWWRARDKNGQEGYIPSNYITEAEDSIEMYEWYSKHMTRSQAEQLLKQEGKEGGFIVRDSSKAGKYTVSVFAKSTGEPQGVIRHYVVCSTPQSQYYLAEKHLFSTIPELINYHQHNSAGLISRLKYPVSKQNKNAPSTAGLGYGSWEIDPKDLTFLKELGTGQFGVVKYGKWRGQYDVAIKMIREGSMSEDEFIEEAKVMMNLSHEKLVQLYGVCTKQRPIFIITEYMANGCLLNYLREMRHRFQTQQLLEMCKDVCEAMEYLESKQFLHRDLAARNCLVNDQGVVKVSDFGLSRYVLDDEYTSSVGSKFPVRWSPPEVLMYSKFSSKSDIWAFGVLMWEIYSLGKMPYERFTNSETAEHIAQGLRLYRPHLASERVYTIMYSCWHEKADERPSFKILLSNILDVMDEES
"inhibition of recombinant BTK, concentration dependence (recombinant BTK)",IC50 (recombinant BTK) [µM],SMILES,effect on release of preformed granule-associated β-hexosaminidase (RBL-2H3 mast cells [1]),inhibition of LTC4 release (RBL-2H3 mast cells [2]),tolerability of dose level (BALB/c mice; 50 mg/kg dose level),"inhibition of IgE/antigen induced plasma exudation (BALB/c mice; 50 mg/kg i.p., twice prior to antigen challenge) [%]"
in a concentration-dependent fashion,110,"CCCc1cc(=O)oc2c3c(c4c(c12)OC(C)(C)C=C4)O[C@H](C)[C@@H](C)C3=O (relative stereo) [HI-D86, 10,11-trans-Dihydro-6,6,10,11-tetramethyl-4-propyl-2H,6H,12H-benzo[2-b: 3,4-b':5,6-b""]tripyran-2,12-dione]",–,–,–,–
in a concentration-dependent fashion,130,"CCCc1cc(=O)oc2c3c(c4c(c12)OC(C)(C)C=C4)O[C@H](C)[C@@H](C)[C@@H]3O (relative stereo) [HI-D63, (±)-Calanolide A]",–,–,–,–

SMILES,"inhibition of recombinant BTK, concentration dependence (recombinant BTK)",IC50 (recombinant BTK) [µM],effect on release of preformed granule-associated β-hexosaminidase (RBL-2H3 mast cells [1]),inhibition of LTC4 release (RBL-2H3 mast cells [2]),tolerability of dose level (BALB/c mice; 50 mg/kg dose level),"inhibition of IgE/antigen induced plasma exudation (BALB/c mice; 50 mg/kg i.p., twice prior to antigen challenge) [%]"
"CCCc1cc(=O)oc2c(C(=O)CC)c(O)c3c(c12)OC(C)(C)C=C3 [HI-D12, 6,6 Dimethyl-9-hydroxy-10-propionyl-4-propyl-2H,6H-benzo[1,2-b: 3,4-b']dipyran-2-one]",in a concentration-dependent fashion,29,did not prevent the release of preformed granule-associated β-hexosaminidase,inhibited the release of the newly synthesized arachidonic acid metabolite LTC4 in a concentration-dependent fashion,nontoxic,70

# Source: patent US6306897A, “Calanolides for inhibiting BTK” (Parker Hughes Institute, priority 1999, dated 2001)
